Results published in patent US20210244686A1, “Novel Systems And Methods For The Therapeutic Use of Cannabinoids or Cannabinoid Analogs to Increase The Lipid Order of Cholesterol Containing Cell Membranes” (The Regents of the University of Colorado a body corporate, priority 2018, published 2021).

Test system: SREBP2
Experiment: Western blot analysis of SREBP2 proteolytic processing
Format: cell-based, human
Settings: 24 hr
Source text: To further investigate the role of SREBP/SCAP signaling in the CBD response, the present inventors used western blot analysis to probe whether SREBP2 proteolytic processing is affected by CBD. […] The present inventors performed this assay with cells grown in LDL containing FBS (elevated cholesterol) and LDL depleted FBS (cholesterol starved). […] However, the inventors also detect evidence that although cholesterol precursors are accumulating in a CBD dependent manner, cholesterol itself appears to experience a net decrease in de novo synthesis. This is evident in the overall decrease in newly synthesized ^13C labeled cholesterol in CBD treated cells (FIG. 3B) and implies an apparent blockage in the final step of cholesterol biosynthesis, which is catalyzed by either DHCR24 or DHCR7 in the ER.
Cells were harvested at 24 hours by trypsinization and counted using a hemocytometer to determine cell concentration. 4×10^6 cells from each sample were lysed using 200 μL SDS lysis buffer (20 mM Tris pH 6.8, 4% SDS, 0.5% beta mercaptoethanol) and lysates were boiled for 5 minutes 95° C. and subsequently sonicated at 40% power 10 cycles 10 seconds on/off. 10 μL of lysate was loaded into each lane of a 12% SDS PAGE gel. Immunoblotting of protein transferred to nitrocellulose membrane was performed using anti-SREBP2 (Cayman Chemical #10007663).

C=C(C)[C@@H]1CCC(C)=C[C@H]1c1c(O)cc(CCCCC)cc1O [CBD, cannabidiol]
magnitude of SREBP2 cleavage activation versus U18666A or Atorvastatin (U18666A 10 μM, Atorvastatin 10 μM): lower in magnitude | SREBP2 cleavage (both cholesterol starved and elevated cholesterol conditions): dose dependent activation
